Measured values published in patent publication US9708312B2, “Dihydropyrimidinoisoquinolinones and pharmaceutical compositions thereof for the treatment of inflammatory disorders (GPR84 antagonists)” (GALAPAGOS NV, priority 2012, dated 2017).

Key:
[1] = system: human neutrophils; assay: Human neutrophil migration assay (embelin-induced chemotaxis); type: cell-based; conditions: Neutrophil; neutrophils from human buffy coats; embelin at EC80
Method: 2.1. Human Neutrophil Migration Assay
The effect of agonists or antagonists for GPR84 can therefore be assayed in a neutrophil migration test. In the neutrophil migration assay, neutrophils, freshly isolated from buffy coats from human volunteers, are treated with a compound for 30 min Subsequently, the neutrophils are transferred to the upper wells of a Corning HTS transwell 96 permeable support system, of which the lower wells are filled with a embelin solution at EC80 (concentration which gives 80% of the activity of GPR84). After 1 h of incubation, migration of the neutrophils towards embelin in the lower compartment can be quantified by measuring the ATP-content of the lower wells using the ATPlite luminescence ATP detection assay system (Perkin Elmer, Cat. No.: 436110).
2.1.1 Isolation of Neutrophils from Human Buffy Coat
A human buffy coat is diluted with an equal volume of ice cold DPBS. 20 mL of the diluted buffy coat is gently mixed with 4 mL of ACD buffer (140 mM citric acid, 200 mM sodium citrate and 220 mM dextrose). Then, 12 mL of the 6% dextran/0.9% NaCl solution (15 g dextran T2000 and 2.25 g NaCl dissolved in 250 mL H2O) is added to the mixture and the samples are inverted gently up to 20 times. The total volume was transferred to a new recipient and incubated at room temperature for 1 h for complete separation of the two phases to occur. The yellowish supernatant is then transferred to a clean centrifugation tube and centrifuged for 12 min at 1300 rpm and 4° C. After centrifugation, the supernatant is discarded and the remaining cell pellet is rapidly resuspended in 12 mL of ice-cold H2O for red blood cell lysis to occur. After 20 seconds, 4 mL of ice-cold 0.6 M KCl is added. Samples are mixed carefully and centrifuged for 6 min at 1300 rpm, 4° C. The supernatant is discarded and the red blood cell lysis procedure is repeated one more time. Subsequently, the cell pellet is resuspended in 4 mL of DPBS and layered over 5 mL of Lymphoprep (Nycomed Pharma, Cat. No.: 1114545) in a 15 mL centrifuge tube. After centrifugation for 12 min at 1300 rpm, 4° C., the supernatant is removed and the cell pellet, containing the neutrophils, is resuspended in 25 mL chemotaxis buffer (RPMI 1640 medium, supplemented with 10 mM HEPES; freshly made for each experiment)
A cell suspension of 8.9×10^6 cells per milliliter is prepared. 20 μL of compound solution in chemotaxis buffer is added to 180 μL cell suspension. The mixture is incubated at 37° C. for 30 min with intermediate resuspension of the cells after 15 min Following this, 70 μL cell suspension is transferred to the upper compartment of a Corning HTS transwell 96 permeable support system with 5.0 μm pore size polycarbonate membrane (Corning, Cat. No.: 3387). The receiver well of the transwell system is then filled with 200 μL chemotaxis buffer containing compound and chemotactic agent (embelin). After incubation at 37° C. in 5% CO2 for 1 h, the upper plate of the transwell system is removed and the cell suspension in the receiver plate is transferred to a 96-well V-bottom plate. 50 μL of DPBS is added to the receiver plate to prevent remaining cells from drying out. The V-bottom plate is centrifuged for 6 min at 1500 rpm. The supernatant is removed and the cells are resuspended in 50 μL DPBS. The cells are then transferred back to the receiver plate of the transwell system. After this, 100 μL ATPlite solution (Perkin Elmer, Cat. No: 436110) was added to the cells. The plate is incubated for 10 min in the dark, while shaking. […] of cell lysate is then transferred to a white 96-well plate and luminescence is measured. The detected luminescent signal is considered as linearely related to the number of cells having migrated from the upper well to the receiver well.

[2] = biological target: T1, GPR84 (Homo sapiens, UniProt Q9NQS5); assay: GPR84 [35S]GTPγS binding assay, Tris buffer (alternative); type: biochemical; conditions: 3,3′ di indolylmethane at EC80, membranes from stable cell line over expressing GPR84, read-out: Alternative GPR84 assay GTPγS IC50 (GPR84-2)
T1 construct: expressed in transfected cells
T1 sequence (Q9NQS5 whole entry): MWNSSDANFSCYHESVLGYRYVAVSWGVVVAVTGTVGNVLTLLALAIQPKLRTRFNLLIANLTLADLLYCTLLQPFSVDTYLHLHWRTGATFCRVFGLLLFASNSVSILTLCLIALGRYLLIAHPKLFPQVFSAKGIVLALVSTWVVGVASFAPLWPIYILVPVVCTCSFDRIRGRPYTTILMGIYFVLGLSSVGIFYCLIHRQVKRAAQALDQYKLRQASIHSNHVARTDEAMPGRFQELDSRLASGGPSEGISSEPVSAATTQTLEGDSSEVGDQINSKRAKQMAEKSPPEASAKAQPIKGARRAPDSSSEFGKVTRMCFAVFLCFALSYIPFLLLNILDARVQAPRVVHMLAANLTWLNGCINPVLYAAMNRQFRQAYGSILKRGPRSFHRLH
Method: 1.1. Cell Based Assay: GTp-γ S Binding Assay.
The following assay can be used for determination of GPR84 activation. The [^35S]GTPγS binding assay measures the level of G protein activation following agonist occupation of a GPCR, by determining the binding of the non-hydrolysable analog [^35S]GTPγS to Gα subunits.
Alternatively, the assay is performed in a 96 well plate where the following reagents are added. First 50 μL compound is added into the assay plate, followed by addition of 20 μL 3,3′ di indolylmethane at EC80 concentration (concentration which gives 80% of the activity of GPR84). In a last step, 30 μL of a mixture consisting of membranes-GTPγS-SpA beads is added [mixture consists of 20 μg/well membranes derived from stable cell line over expressing GPR84 (membranes are pre-incubated with 0.1 μM GDP for 15 min at 4° C.), 0.1 nM [^35S]GTPγS (Perkin Elmer, NEG030) and 0.5 mg/well PVT-WGA SpA beads (Perkin Elmer, RPNQ0001)]. All components are diluted in assay buffer containing 20 mM Tris pH 7.5; 5 mM MgCl2; 250 mM NaCl; 0.05% BSA; 75 ug/mL saponin Reactions are incubated for 90 min at room temperature followed by centrifugation at 2000 rpm during 15 min. Plates are read on a Topcount reader (Perkin Elmer) immediately after centrifugation (readout time, 1 min/well).

IC50 [1] [nM]	IC50 [2] [nM]	SMILES
0.01 to 100	0.01 to 100	O=c1nc(OCC2COc3ncccc3O2)cc2n1CCc1cc(C#Cc3ccncc3)ccc1-2 (stereo not shown) [compound 137, 2-(2,3-dihydro-[1,4]dioxino[2,3-b]pyridin-2-ylmethoxy)-9-pyridin-4-ylethynyl-6,7-dihydro-pyrimido[6,1-a]isoquinolin-4-one]
0.01 to 100	0.01 to 100	COc1ccc(-c2ccc3c(c2)CCn2c-3cc(OCC3COc4ncccc4O3)nc2=O)cn1 (stereo not shown) [compound 118, 2-(2,3-Dihydro-[1,4]dioxino[2,3-b]pyridin-2-ylmethoxy)-9-(6-methoxy-pyridin-3-yl)-6,7-dihydro-pyrimido[6,1-a]isoquinolin-4-one]
0.01 to 100	100 to 500	N#Cc1ccccc1-c1ccc2c(c1)CCn1c-2cc(OCC2COc3ncccc3O2)nc1=O (stereo not shown) [compound 125, 2-[2-(2,3-Dihydro-[1,4]dioxino[2,3-b]pyridin-2-ylmethoxy)-4-oxo-6,7-dihydro-4H-pyrimido[6,1-a]isoquinolin-9-yl]-benzonitrile]
0.01 to 100	100 to 500	COCC#Cc1ccc2c(c1)CCn1c-2cc(OCC2COc3ncccc3O2)nc1=O (stereo not shown) [compound 132, 2-(2,3-dihydro-[1,4]dioxino[2,3-b]pyridin-2-ylmethoxy)-9-(3-methoxy-prop-1-ynyl)-6,7-dihydro-pyrimido[6,1-a]isoquinolin-4-one]
0.01 to 100	0.01 to 100	Cc1cc(COc2ccc3c(c2)CCn2c-3cc(OCC3COc4ncccc4O3)nc2=O)nn1C (stereo not shown) [compound 134, 2-(2,3-Dihydro-[1,4]dioxino[2,3-b]pyridin-2-ylmethoxy)-9-(1,5-dimethyl-1H-pyrazol-3-ylmethoxy)-6,7-dihydro-pyrimido[6,1-a]isoquinolin-4-one]
–	100 to 500	O=c1nc(OCC2CCCO2)cc2n1CCc1cc(C#CC3CC3)ccc1-2 (stereo not shown) [compound 119, 9-cyclopropylethynyl-2-(tetrahydro-furan-2-ylmethoxy)-6,7-dihydro-pyrimido[6,1-a]isoquinolin-4-one]
–	500 to 1000	O=c1nc(OCC2CCCO2)cc2n1CCc1cc(-c3ccc(Cl)s3)ccc1-2 (stereo not shown) [compound 116, 9-(5-chloro-thiophen-2-yl)-2-(tetrahydro-furan-2-ylmethoxy)-6,7-dihydro-pyrimido[6,1-a]isoquinolin-4-one]
–	100 to 500	Cc1noc(C)c1-c1ccc2c(c1)CCn1c-2cc(OCC2CCCO2)nc1=O (stereo not shown) [compound 112, 9-(3,5-dimethyl-isoxazol-4-yl)-2-(tetrahydro-furan-2-ylmethoxy)-6,7-dihydro-pyrimido[6,1-a]isoquinolin-4-one]
–	500 to 1000	O=c1nc(OCC2CCCO2)cc2n1CCc1cc(-c3cccc4ccccc34)ccc1-2 (stereo not shown) [compound 114, 9-naphthalen-1-yl-2-(tetrahydro-furan-2-ylmethoxy)-6,7-dihydro-pyrimido[6,1-a]isoquinolin-4-one]
–	100 to 500	COc1ccccc1-c1ccc2c(c1)CCn1c-2cc(OCC2COc3ncccc3O2)nc1=O (stereo not shown) [compound 126, 2-(2,3-dihydro-[1,4]dioxino[2,3-b]pyridin-2-ylmethoxy)-9-(2-methoxy-phenyl)-6,7-dihydro-pyrimido[6,1-a]isoquinolin-4-one]
–	100 to 500	CN(C)c1ccccc1-c1ccc2c(c1)CCn1c-2cc(OCC2COc3ncccc3O2)nc1=O (stereo not shown) [compound 130, 2-(2,3-Dihydro-[1,4]dioxino[2,3-b]pyridin-2-ylmethoxy)-9-(2-dimethylamino-phenyl)-6,7-dihydro-pyrimido[6,1-a]isoquinolin-4-one]
–	0.01 to 100	O=c1nc(OCC2COc3ncccc3O2)cc2n1CCc1cc(C#CCO)ccc1-2 (stereo not shown) [compound 138, 2-(2,3-dihydro-[1,4]dioxino[2,3-b]pyridin-2-ylmethoxy)-9-(3-hydroxy-prop-1-ynyl)-6,7-dihydro-pyrimido[6,1-a]isoquinolin-4-one]
–	0.01 to 100	O=c1nc(OCC2COc3ncccc3O2)cc2n1CCc1cc(-c3cncnc3)ccc1-2 (stereo not shown) [compound 128, 2-(2,3-dihydro-[1,4]dioxino[2,3-b]pyridin-2-ylmethoxy)-9-pyrimidin-5-yl-6,7-dihydro-pyrimido[6,1-a]isoquinolin-4-one]
–	500 to 1000	O=c1nc(OCC2CCCO2)cc2n1CCc1cc(OCc3cccc4ccccc34)ccc1-2 (stereo not shown) [compound 38, 9-(naphthalen-1-ylmethoxy)-2-(tetrahydro-furan-2-ylmethoxy)-6,7-dihydro-pyrimido[6,1-a]isoquinolin-4-one]
–	0.01 to 100	N#CCCC#Cc1ccc2c(c1)CCn1c-2cc(OCC2COc3ncccc3O2)nc1=O (stereo not shown) [compound 143, 5-[2-(2,3-dihydro-[1,4]dioxino[2,3-b]pyridin-2-ylmethoxy)-4-oxo-6,7-dihydro-pyrimido[6,1-a]isoquinolin-9-yl]-pent-4-ynenitrile]
0.01 to 100	0.01 to 100	O=c1nc(OCC2COc3ncccc3O2)cc2n1CCc1cc(OCc3ccncc3)ccc1-2 (stereo not shown) [compound 122, 2-(2,3-Dihydro-[1,4]dioxino[2,3-b]pyridin-2-ylmethoxy)-9-(pyridin-4-ylmethoxy)-6,7-dihydro-pyrimido[6,1-a]isoquinolin-4-one]
–	0.01 to 100	O=c1nc(OCC2CCCO2)cc2n1CCc1cc(-c3ccc4ccccc4c3)ccc1-2 (stereo not shown) [compound 113, 9-naphthalen-2-yl-2-(tetrahydro-furan-2-ylmethoxy)-6,7-dihydro-pyrimido[6,1-a]isoquinolin-4-one]
0.01 to 100	0.01 to 100	Cc1ccc(-c2ccc3c(c2)CCn2c-3cc(OCC3COc4ncccc4O3)nc2=O)cn1 (stereo not shown) [compound 139, 2-(2,3-dihydro-[1,4]dioxino[2,3-b]pyridin-2-ylmethoxy)-9-(6-methyl-pyridin-3-yl)-6,7-dihydro-pyrimido[6,1-a]isoquinolin-4-one]
–	100 to 500	Cc1cccc(COc2ccc3c(c2)CCn2c-3cc(OCC3CCCO3)nc2=O)c1 (stereo not shown) [compound 34, 9-(3-methyl-benzyloxy)-2-(tetrahydro-furan-2-ylmethoxy)-6,7-dihydro-pyrimido[6,1-a]isoquinolin-4-one]
–	0.01 to 100	O=c1nc(OCC2COc3ncccc3O2)cc2n1CCc1cc(C#CCCO)ccc1-2 (stereo not shown) [compound 133, 2-(2,3-dihydro-[1,4]dioxino[2,3-b]pyridin-2-ylmethoxy)-9-(4-hydroxy-but-1-ynyl)-6,7-dihydro-pyrimido[6,1-a]isoquinolin-4-one]
–	0.01 to 100	NC(=O)c1cccc(-c2ccc3c(c2)CCn2c-3cc(OCC3COc4ncccc4O3)nc2=O)c1 (stereo not shown) [compound 129, 3-[2-(2,3-Dihydro-[1,4]dioxino[2,3-b]pyridin-2-ylmethoxy)-4-oxo-6,7-dihydro-4H-pyrimido[6,1-a]isoquinolin-9-yl]-benzamide]
